Experimental data as given in the NIST ThermoML archive (doi:10.1021/je800999s).

Test: molar heat capacity at constant pressure; xn = mol fraction of the nth substance listed
Conditions: 101 kPa, Liquid, Large sample (1 g) DSC

COCCOCCOCCOC [2,5,8,11-tetraoxadodecane] + O
molar heat capacity at constant pressure [J/K/mol]
Conditions | x1 = 0.0999 | x1 = 0.1997 | x1 = 0.2967 | x1 = 0.3977 | x1 = 0.4983 | x1 = 0.5918 | x1 = 0.6926 | x1 = 0.7941 | x1 = 0.8686 | x1 = 1
303.15 K | 109 | 141 | 171 | 198 | 224 | 250 | 275 | 300 | 328 | 359
308.15 K | 110 | 143 | 173 | 200 | 227 | 253 | 278 | 304 | 332 | 364
313.15 K | 111 | 144 | 174 | 202 | 228 | 254 | 279 | 306 | 334 | 366
318.15 K | 112 | 145 | 175 | 203 | 229 | 255 | 281 | 307 | 335 | 368
323.15 K | 112 | 146 | 176 | 204 | 231 | 256 | 282 | 309 | 337 | 370
328.15 K | 113 | 147 | 177 | 206 | 232 | 258 | 283 | 310 | 339 | 371
333.15 K | 114 | 148 | 179 | 207 | 233 | 259 | 285 | 312 | 341 | 373
338.15 K | 114 | 149 | 180 | 208 | 235 | 261 | 286 | 313 | 342 | 375
343.15 K | 115 | 150 | 181 | 210 | 237 | 263 | 289 | 316 | 345 | 379
348.15 K | 116 | 151 | 183 | 211 | 238 | 264 | 290 | 318 | 347 | 381
353.15 K | 116 | 152 | 184 | 212 | 239 | 265 | 291 | 318 | 348 | 382

O=CN1CCOCC1 [N-formylmorpholine] + O
molar heat capacity at constant pressure [J/K/mol]
Conditions | x1 = 0.0997 | x1 = 0.1998 | x1 = 0.2992 | x1 = 0.3993 | x1 = 0.4975 | x1 = 0.5978 | x1 = 0.6954 | x1 = 0.7988 | x1 = 0.8946 | x1 = 1
303.15 K | 86 | 98 | 111 | 123 | 134 | 145 | 154 | 164 | 174 | 185
308.15 K | 86 | 99 | 111 | 124 | 135 | 146 | 156 | 166 | 176 | 186
313.15 K | 87 | 100 | 113 | 125 | 137 | 148 | 158 | 168 | 178 | 188
318.15 K | 87 | 100 | 114 | 126 | 138 | 149 | 159 | 169 | 179 | 189
323.15 K | 88 | 101 | 115 | 127 | 140 | 150 | 161 | 171 | 181 | 191
328.15 K | 88 | 102 | 116 | 129 | 141 | 152 | 162 | 173 | 183 | 193
333.15 K | 89 | 103 | 117 | 130 | 142 | 153 | 164 | 174 | 184 | 195
338.15 K | 90 | 104 | 118 | 131 | 144 | 155 | 166 | 176 | 186 | 197
343.15 K | 91 | 106 | 120 | 133 | 146 | 157 | 168 | 178 | 189 | 200
348.15 K | 91 | 107 | 121 | 135 | 147 | 158 | 169 | 180 | 190 | 201
353.15 K | 92 | 107 | 122 | 135 | 148 | 159 | 170 | 181 | 191 | 202
